Experiments:
[1] = molecular target: T1, full-length beta-Catenin (Uniprot ID P35222) (Homo sapiens, UniProt P35222); assay: Fluorescence polarization IC50 (beta-catenin / 5FAM-TCF4 10-53 competition); assay type: binding; settings: fluorescence polarization; read-out: beta-Catenin FP IC50
T1 construct: 10 nM full-length beta-Catenin (Uniprot ID P35222)
T1 sequence (P35222 1-781): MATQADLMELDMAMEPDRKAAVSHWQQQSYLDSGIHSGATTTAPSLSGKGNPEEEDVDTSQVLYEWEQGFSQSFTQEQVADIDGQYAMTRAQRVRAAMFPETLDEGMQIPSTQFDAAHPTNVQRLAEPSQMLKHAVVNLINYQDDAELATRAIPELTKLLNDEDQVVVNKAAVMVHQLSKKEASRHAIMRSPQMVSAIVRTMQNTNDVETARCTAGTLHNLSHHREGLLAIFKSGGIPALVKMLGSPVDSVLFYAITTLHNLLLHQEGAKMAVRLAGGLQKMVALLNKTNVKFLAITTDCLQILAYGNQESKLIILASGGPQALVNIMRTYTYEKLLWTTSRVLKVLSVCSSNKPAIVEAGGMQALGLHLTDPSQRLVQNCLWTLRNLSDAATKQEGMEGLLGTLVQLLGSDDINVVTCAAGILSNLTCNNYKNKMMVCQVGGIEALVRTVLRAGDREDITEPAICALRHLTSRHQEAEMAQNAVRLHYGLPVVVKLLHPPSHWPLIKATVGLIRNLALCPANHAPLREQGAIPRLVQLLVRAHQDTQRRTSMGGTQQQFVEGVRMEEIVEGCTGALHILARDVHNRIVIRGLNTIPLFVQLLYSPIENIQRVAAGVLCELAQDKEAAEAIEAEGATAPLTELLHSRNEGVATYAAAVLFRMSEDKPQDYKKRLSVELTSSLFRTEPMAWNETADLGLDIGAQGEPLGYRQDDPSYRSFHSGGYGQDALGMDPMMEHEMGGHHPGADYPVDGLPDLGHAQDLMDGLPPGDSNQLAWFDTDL

[2] = molecular target: T2, beta-catenin/TCF4 engagement (Homo sapiens, UniProt P35222); assay: Nano-BRET target engagement assay (B-cat-Halo & TCF4-Luc in HEK293 cells); assay type: cell-based; settings: absolute IC50; read-out: NanoBRET Abs IC50
T2 construct: expressed in transfected cells; host or cells: HEK293
T2 sequence (P35222 1-781): T1 sequence (P35222 1-781)

[3] = tested on: TCF/LEF luciferase Reporter in DLD1 cells; assay: TCF reporter assay (DLD1 TCF/LEF luciferase reporter, Bright-Glo); assay type: cell-based; settings: read-out: DLD1 4% Abs IC50; DLD1 reporter, 4%, absolute IC50
Outline: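 DLD1 cells stably carrying a TCF/LEF luciferase reporter were plated at 5000 cells/well in RPMI + 4% FBS and treated overnight with a 1:2 compound dilution series. Bright-Glo luminescence read on day 3; viability by CellTiter-Glo. Absolute IC50 determined.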

| Structure (SMILES) | IC50 [1] [µM] | IC50 [2] [µM] | IC50 [3] [µM] |
| --- | --- | --- | --- |
| CC(=O)N1CCC[C@]12CC=CCCCC1(CCCC=CCCCOC(=O)N3CC[C@@](C(=O)N[C@@H](Cc4ccsc4)C(=O)N[C@@H](Cc4csc5ccccc45)C(=O)N[C@@H](CC(N)=O)C(=O)N[C@@H](CC(C)C)C(=O)N[C@@H](CC(C)C)C(=O)N[C@@H](CC(C)C)C(N)=O)(C3)NC(=O)[C@H](CC(C)C)NC(=O)[C@H](Cc3ccccc3)NC(=O)[C@H](C)NC(=O)[C@H](C)NC(=O)[C@H](Cc3cccc(C(=O)O)c3)NC(=O)[C@H](CC(=O)O)NC1=O)NC(=O)[C@H](CC(C)(C)C)NC(=O)[C@H](CC(=O)O)NC2=O (stereo partly drawn) [I-2276, Ac-PL3-Asp-Npg-B5-Asp-3COOHF-Ala-Ala-Phe-Leu-PyrS2-3Thi-BztA-Asn-Leu-Leu-Leu-NH2] | 0.157 | 4 | 3.9 |
| CC(=O)N1CCC[C@]12CC=CCCCC1(CCCC=CCCCOC(=O)N3CC[C@@](C(=O)N[C@@H](Cc4ccccc4C(F)(F)F)C(=O)N[C@@H](Cc4csc5ccccc45)C(=O)N[C@@H](CO)C(N)=O)(C3)NC(=O)[C@H](CC(C)C)NC(=O)[C@H](Cc3ccccc3)NC(=O)[C@H](C)NC(=O)[C@H](C)NC(=O)[C@H](Cn3cc(C(C)(C)C(=O)O)nn3)NC(=O)[C@H](CC(=O)O)NC1=O)NC(=O)[C@H](CC(C)(C)C)NC(=O)[C@H](CC(=O)O)NC2=O (stereo partly drawn) [I-2374, Ac-PL3-Asp-Npg-B5-Asp-[CMe2CO2H]TriAzDap-Ala-Ala-Phe-Leu-PyrS2-2F3MeF-BztA-Ser-NH2] | 0.007 | 3.4 | 2.6 |
| CC[C@H](C)[C@H](NC(=O)[C@H](CC(C)C)NC(=O)[C@H](CCC(N)=O)NC(=O)[C@H](Cc1csc2ccccc12)NC(=O)[C@H](Cc1ccccc1C(F)(F)F)NC(=O)[C@]12CCN(C1)C(=O)OCCCC=CCCCC1(CCCC=CC[C@]3(CCCN3C(C)=O)C(=O)N[C@@H](CC(=O)O)C(=O)N[C@@H](CC(C)(C)C)C(=O)N1)C(=O)N[C@@H](CC(=O)O)C(=O)N[C@@H](Cc1cccc(C(=O)O)c1)C(=O)N[C@@H](C)C(=O)N[C@@H](C)C(=O)N[C@@H](Cc1ccccc1)C(=O)N[C@@H](CC(C)C)C(=O)N2)C(N)=O (stereo partly drawn) [I-2385, Ac-PL3-Asp-Npg-B5-Asp-3COOHF-Ala-Ala-Phe-Leu-PyrS2-2F3MeF-BztA-Gln-Leu-Ile-NH2] | 0.563 | 4 | 1.8 |
| CC(=O)N1CCC[C@]12CC=CCCCC1(CCCC=CCCCOC(=O)N3CC[C@@](C(=O)N[C@@H](Cc4ccccc4C(F)(F)F)C(=O)N[C@@H](Cc4csc5ccccc45)C(=O)N[C@@H](CCC(N)=O)C(=O)N[C@@H](CC(C)C)C(=O)NC(C)(C)C(N)=O)(C3)NC(=O)[C@H](CC(C)C)NC(=O)[C@H](Cc3ccccc3)NC(=O)[C@H](C)NC(=O)[C@H](C)NC(=O)[C@H](Cc3cccc(C(=O)O)c3)NC(=O)[C@H](CC(=O)O)NC1=O)NC(=O)[C@H](CC(C)(C)C)NC(=O)[C@H](CC(=O)O)NC2=O (stereo partly drawn) [I-2386, Ac-PL3-Asp-Npg-B5-Asp-3COOHF-Ala-Ala-Phe-Leu-PyrS2-2F3MeF-BztA-Gln-Leu-Aib-NH2] | 0.0755 | 2.8 | 0.7 |
| CC(=O)N1CCC[C@]12CC=CCCCC1(CCCC=CCCCOC(=O)N3CC[C@@](C(=O)N[C@@H](Cc4ccccc4C(F)(F)F)C(=O)N[C@@H](Cc4csc5ccccc45)C(=O)N[C@@H](CCC(N)=O)C(=O)N[C@@H](CC(C)C)C(=O)NC4(C(N)=O)CCC4)(C3)NC(=O)[C@H](CC(C)C)NC(=O)[C@H](Cc3ccccc3)NC(=O)[C@H](C)NC(=O)[C@H](C)NC(=O)[C@H](Cc3cccc(C(=O)O)c3)NC(=O)[C@H](CC(=O)O)NC1=O)NC(=O)[C@H](CC(C)(C)C)NC(=O)[C@H](CC(=O)O)NC2=O (stereo partly drawn) [I-2388, Ac-PL3-Asp-Npg-B5-Asp-3COOHF-Ala-Ala-Phe-Leu-PyrS2-2F3MeF-BztA-Gln-Leu-Cbg-NH2] | 0.133 | 5.7 | 1.2 |

Second part, the compound after the results:

| IC50 [1] [µM] | IC50 [2] [µM] | IC50 [3] [µM] | Structure (SMILES) |
| --- | --- | --- | --- |
| 0.031 | 4.8 | 1 | CC(=O)N1CCC[C@]12CC=CCCCC1(CCCC=CCCCOC(=O)N3CC[C@@](C(=O)N[C@@H](Cc4ccccc4C(F)(F)F)C(=O)N[C@@H](Cc4csc5ccccc45)C(=O)N[C@@H](CCC(N)=O)C(=O)N[C@@H](CC(C)C)C(=O)N[C@@H](C)C(N)=O)(C3)NC(=O)[C@H](CC(C)C)NC(=O)[C@H](Cc3ccccc3)NC(=O)[C@H](C)NC(=O)[C@H](C)NC(=O)[C@H](Cc3cccc(C(=O)O)c3)NC(=O)[C@H](CC(=O)O)NC1=O)NC(=O)[C@H](CC(C)(C)C)NC(=O)[C@H](CC(=O)O)NC2=O (stereo partly drawn) [I-2378, Ac-PL3-Asp-Npg-B5-Asp-3COOHF-Ala-Ala-Phe-Leu-PyrS2-2F3MeF-BztA-Gln-Leu-Ala-NH2] |
| 0.037 | 4 | 7.6 | CC(=O)N1CCC[C@]12CC=CCCCC1(CCCC=CCCCOC(=O)N3CC[C@@](C(=O)N[C@@H](Cc4ccccc4C(F)(F)F)C(=O)N[C@@H](Cc4csc5ccccc45)C(=O)N[C@@H](CCC(N)=O)C(=O)N[C@@H](CC(C)C)C(=O)N[C@@H](CCC(N)=O)C(N)=O)(C3)NC(=O)[C@H](CC(C)C)NC(=O)[C@H](Cc3ccccc3)NC(=O)[C@H](C)NC(=O)[C@H](C)NC(=O)[C@H](Cc3cccc(C(=O)O)c3)NC(=O)[C@H](CC(=O)O)NC1=O)NC(=O)[C@H](CC(C)(C)C)NC(=O)[C@H](CC(=O)O)NC2=O (stereo partly drawn) [I-2382, Ac-PL3-Asp-Npg-B5-Asp-3COOHF-Ala-Ala-Phe-Leu-PyrS2-2F3MeF-BztA-Gln-Leu-Gln-NH2] |
| 0.077 | 4.2 | 0.8 | CC(=O)N1CCC[C@]12CC=CCCCC1(CCCC=CCCCOC(=O)N3CC[C@@](C(=O)N[C@@H](Cc4ccccc4C(F)(F)F)C(=O)N[C@@H](Cc4csc5ccccc45)C(=O)N[C@@H](CCC(N)=O)C(=O)N[C@@H](CC(C)C)C(=O)N[C@H](C(N)=O)[C@@H](C)O)(C3)NC(=O)[C@H](CC(C)C)NC(=O)[C@H](Cc3ccccc3)NC(=O)[C@H](C)NC(=O)[C@H](C)NC(=O)[C@H](Cc3cccc(C(=O)O)c3)NC(=O)[C@H](CC(=O)O)NC1=O)NC(=O)[C@H](CC(C)(C)C)NC(=O)[C@H](CC(=O)O)NC2=O (stereo partly drawn) [I-2383, Ac-PL3-Asp-Npg-B5-Asp-3COOHF-Ala-Ala-Phe-Leu-PyrS2-2F3MeF-BztA-Gln-Leu-Thr-NH2] |
| 0.005 | 4.6 | 1.1 | CC(=O)N1CCC[C@]12CC=CCCCC1(CCCC=CCCCOC(=O)N3CC[C@@](C(=O)N[C@@H](Cc4ccccc4C(F)(F)F)C(=O)N[C@@H](Cc4csc5ccccc45)C(=O)N[C@@H](CCC(N)=O)C(=O)N[C@@H](CC(C)C)C(=O)N[C@@H](CO)C(N)=O)(C3)NC(=O)[C@H](CC(C)C)NC(=O)[C@H](Cc3ccccc3)NC(=O)[C@H](C)NC(=O)[C@H](C)NC(=O)[C@H](Cc3cccc(C(=O)O)c3)NC(=O)[C@H](CC(=O)O)NC1=O)NC(=O)[C@H](CC(C)(C)C)NC(=O)[C@H](CC(=O)O)NC2=O (stereo partly drawn) [I-2384, Ac-PL3-Asp-Npg-B5-Asp-3COOHF-Ala-Ala-Phe-Leu-PyrS2-2F3MeF-BztA-Gln-Leu-Ser-NH2] |
| 0.022 | 9.1 | 1.4 | CC(=O)N1CCC[C@]12CC=CCCCC1(CCCC=CCCCOC(=O)N3CC[C@@](C(=O)N[C@@H](Cc4ccccc4C(F)(F)F)C(=O)N[C@@H](Cc4csc5ccccc45)C(=O)N[C@@H](CCC(N)=O)C(=O)N[C@@H](CC(C)C)C(=O)N[C@@H](CC(N)=O)C(N)=O)(C3)NC(=O)[C@H](CC(C)C)NC(=O)[C@H](Cc3ccccc3)NC(=O)[C@H](C)NC(=O)[C@H](C)NC(=O)[C@H](Cc3cccc(C(=O)O)c3)NC(=O)[C@H](CC(=O)O)NC1=O)NC(=O)[C@H](CC(C)(C)C)NC(=O)[C@H](CC(=O)O)NC2=O (stereo partly drawn) [I-2390, Ac-PL3-Asp-Npg-B5-Asp-3COOHF-Ala-Ala-Phe-Leu-PyrS2-2F3MeF-BztA-Gln-Leu-Asn-NH2] |

Source: patent US20240116985A1, “STAPLED PEPTIDES AND METHODS THEREOF” (priority 2020, published 2024)
